Reference: article PMC11050443, “Discovery of Strong 3-Nitro-2-Phenyl-2H-Chromene Analogues as Antitrypanosomal Agents and Inhibitors of Trypanosoma cruzi Glucokinase” (International Journal of Molecular Sciences, 2024)

Molecular target: T1, TcGlcK (Trypanosoma cruzi glucokinase) (Trypanosoma cruzi, UniProt Q4E4E1)
T1 construct: made in house; host or cells: Escherichia coli BL21(DE3)
T1 sequence (Q4E4E1 1-376): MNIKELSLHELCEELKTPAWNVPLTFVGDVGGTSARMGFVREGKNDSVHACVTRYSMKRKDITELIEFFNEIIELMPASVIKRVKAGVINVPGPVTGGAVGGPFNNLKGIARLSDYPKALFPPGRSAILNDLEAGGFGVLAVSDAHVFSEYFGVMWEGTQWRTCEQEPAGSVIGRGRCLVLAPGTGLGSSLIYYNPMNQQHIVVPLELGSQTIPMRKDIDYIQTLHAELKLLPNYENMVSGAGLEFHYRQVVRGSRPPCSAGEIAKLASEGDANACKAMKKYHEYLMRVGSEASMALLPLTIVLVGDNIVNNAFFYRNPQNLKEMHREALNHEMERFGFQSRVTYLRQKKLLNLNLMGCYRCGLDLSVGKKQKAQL
Experiment: TcGlcK primary screening assay (LmG6PDH-coupled, Dixon plots)
Assay type: biochemical
Conditions: Cornish-Bowden method, Dixon plots of [D-Glc]/V versus inhibitor concentration
Method: A primary screening assay was carried out for TcGlcK with the 3-nitro-2-phenyl-2H-chromene analogues. The data was subsequently processed for respective Ki values in order to assess enzyme inhibition. […] The primary screening assay was performed with the substrate D-glucose in various concentrations of 0.4 mM, 0.6 mM, and 0.8 mM to produce Dixon plots with different slopes. Each of the 3-nitro-2-phenyl-2H-chromene analogues were originally prepared at a working concentration of 1.0 mM and were dissolved in 100% DMSO. The final assay concentrations of the analogue compounds (inhibitors) ranged from 0.0–10.0 μM. The analogue compounds were pre-incubated with the enzyme system a minimum of 10 min prior to the initiation of the assay. The enzymatic reaction was carried out at room temperature (22 °C; temperature optimum) using ATP to initiate the reaction, and termination was performed after 120 s (time optimum) by stopping the reaction with the addition of an EDTA (pH 8.0) solution, to a final concentration of 100 mM. TcGlcK enzyme activity was analyzed for the production of NADPH. Each completed reaction mixture was added into a black, round-bottom microplate and scanned by a VANTAstar-F multi-mode microplate reader (BMG LABTECH, Inc.; Cary, NC, USA). The instrument was set to fluorescence mode and the wavelengths (λex = 340 nm; λem = 485 nm) were set to observe the relative fluorescence units of NADPH [40]. The enzyme-inhibition kinetics Ki value determination and the mode of inhibition was determined using the Cornish–Bowden Dixon Plot analysis method.

Structure (SMILES)	Mode of TcGlcK inhibition
CCOc1ccc(C2Oc3ccc(Br)cc3C=C2[N+](=O)[O-])cc1OC (stereo not shown) [Compound 1, 6-Bromo-2-(4-ethoxy-3-methoxyphenyl)-3-nitro-2H -chromene]	uncompetitive inhibition
COc1ccc(C2Oc3ccc(Br)cc3C=C2[N+](=O)[O-])cc1OC (stereo not shown) [Compound 4, 6-Bromo-2-(3,4-dimethoxyphenyl)-3-nitro-2H -chromene]	mixed-mode inhibition
CCOc1ccc(C2Oc3c(Cl)cc(Cl)cc3C=C2[N+](=O)[O-])cc1OCC (stereo not shown) [Compound 9, 6,8-Dichloro-2-(3,4-diethoxyphenyl)-3-nitro-2H -chromene]	mixed-mode inhibition
O=[N+]([O-])C1=Cc2cc(Br)ccc2OC1c1ccccc1Cl (stereo not shown) [Compound 11, 6-Bromo-2-(2-chlorophenyl)-3-nitro-2H -chromene]	noncompetitive inhibition

Same assay, conditions: Dixon plots; 0.4, 0.6, 0.8 mM D-glucose; N = 1 unless marked, N = 3 for compounds 1, 4, 9, 11

Structure (SMILES)	Ki
CCOc1ccc(C2Oc3ccc(Br)cc3C=C2[N+](=O)[O-])cc1OC (stereo not shown) [Compound 1, 6-Bromo-2-(4-ethoxy-3-methoxyphenyl)-3-nitro-2H -chromene]	6200 ± 1200 nM
CCOc1ccc(C2Oc3ccc(Br)cc3C=C2[N+](=O)[O-])cc1OCC (stereo not shown) [Compound 2, 6-Bromo-2-(3,4-diethoxyphenyl)-3-nitro-2H -chromene]	46000 nM
COc1ccc(C2Oc3c(cc(Br)cc3OC)C=C2[N+](=O)[O-])cc1OC (stereo not shown) [Compound 3, 6-Bromo-2-(3,4-dimethoxyphenyl)-8-methoxy-3-nitro-2H -chromene]	24000 nM
COc1ccc(C2Oc3ccc(Br)cc3C=C2[N+](=O)[O-])cc1OC (stereo not shown) [Compound 4, 6-Bromo-2-(3,4-dimethoxyphenyl)-3-nitro-2H -chromene]	5500 ± 1800 nM
CCOc1ccc(C2Oc3c(Cl)cc(Cl)cc3C=C2[N+](=O)[O-])cc1OCC (stereo not shown) [Compound 9, 6,8-Dichloro-2-(3,4-diethoxyphenyl)-3-nitro-2H -chromene]	12300 ± 5500 nM
O=[N+]([O-])C1=Cc2cc(Br)ccc2OC1c1ccccc1Cl (stereo not shown) [Compound 11, 6-Bromo-2-(2-chlorophenyl)-3-nitro-2H -chromene]	20000 ± 4300 nM

Molecular target: T2, LmG6PDH (Leuconostoc mesenteroides glucose-6-phosphate dehydrogenase) (Leuconostoc mesenteroides, UniProt P11411)
T2 construct: purchased Worthington Biochemical Corporation
Experiment: Confirmatory assay on the LmG6PDH enzyme-coupled system
Assay type: biochemical
Conditions: 20 µM compound; N = 4
Method: Two criteria were examined in order to certify on-target confirmed hits: (a) the assessment of potential inhibition to the LmG6PDH enzyme-coupled system, and (b) the precision of the assay (per inhibitor), performed in quadruplicate (N = 4). Compounds were tested in quadruplicate in a black, round-bottom 96-well microplate in which wells were filled with a buffered solution (50 mM triethanolamine, 150 mM NaCl) amounting to a total volume of 206.5 μL that contained the following reagents at final assay concentrations: LmG6PDH (6.1 μg/mL), NADP^+ (0.54 mM), ATP (0.54 mM), MgCl2 (6.9 mM), DMSO (1.0% by vol.), D-glucose-6-phosphate (0.80 mM), and a 3-nitro-2-phenyl-2H-chromene analogue (20.0 μM). The analogue compounds were pre-incubated with the enzyme system a minimum of 10 min prior to the initiation of the assay. The enzymatic reactions were initiated and terminated similarly as described in the TcGlcK primary screen (vide supra). The production of NADPH was monitored using the VANTAstar-F multi-mode microplate reader set to fluorescent mode, λex = 340 nm and λem = 485 nm, over a 120-s timeframe.

T2 sequence (P11411 whole entry): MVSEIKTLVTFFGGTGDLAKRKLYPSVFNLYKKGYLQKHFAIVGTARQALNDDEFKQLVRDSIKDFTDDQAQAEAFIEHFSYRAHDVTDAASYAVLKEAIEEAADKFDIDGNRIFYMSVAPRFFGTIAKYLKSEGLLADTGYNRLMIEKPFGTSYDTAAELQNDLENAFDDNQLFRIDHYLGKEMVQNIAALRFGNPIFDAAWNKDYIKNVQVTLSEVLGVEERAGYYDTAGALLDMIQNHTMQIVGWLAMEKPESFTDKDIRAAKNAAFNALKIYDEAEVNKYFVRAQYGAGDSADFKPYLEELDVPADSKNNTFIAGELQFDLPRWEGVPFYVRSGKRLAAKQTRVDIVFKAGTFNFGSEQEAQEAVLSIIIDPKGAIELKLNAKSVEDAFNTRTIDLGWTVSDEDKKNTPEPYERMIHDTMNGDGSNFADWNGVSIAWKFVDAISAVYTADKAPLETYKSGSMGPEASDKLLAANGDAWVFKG

Structure (SMILES)	LmG6PDH inhibitory effect (in words)
CCOc1ccc(C2Oc3ccc(Br)cc3C=C2[N+](=O)[O-])cc1OC (stereo not shown) [Compound 1, 6-Bromo-2-(4-ethoxy-3-methoxyphenyl)-3-nitro-2H -chromene]	did not observe any significant LmG6PDH inhibitory effects
COc1ccc(C2Oc3ccc(Br)cc3C=C2[N+](=O)[O-])cc1OC (stereo not shown) [Compound 4, 6-Bromo-2-(3,4-dimethoxyphenyl)-3-nitro-2H -chromene]	did not observe any significant LmG6PDH inhibitory effects
CCOc1ccc(C2Oc3c(Cl)cc(Cl)cc3C=C2[N+](=O)[O-])cc1OCC (stereo not shown) [Compound 9, 6,8-Dichloro-2-(3,4-diethoxyphenyl)-3-nitro-2H -chromene]	did not observe any significant LmG6PDH inhibitory effects
O=[N+]([O-])C1=Cc2cc(Br)ccc2OC1c1ccccc1Cl (stereo not shown) [Compound 11, 6-Bromo-2-(2-chlorophenyl)-3-nitro-2H -chromene]	did not observe any significant LmG6PDH inhibitory effects

Same assay, conditions: percentage of inhibition at 20 µM compound in comparison to controls; N = 4; read-out: LmG6PDH Inh20

Structure (SMILES)	inhibition at 20 µM
CCOc1ccc(C2Oc3ccc(Br)cc3C=C2[N+](=O)[O-])cc1OC (stereo not shown) [Compound 1, 6-Bromo-2-(4-ethoxy-3-methoxyphenyl)-3-nitro-2H -chromene]	15.4 ± 0.1%
CCOc1ccc(C2Oc3ccc(Br)cc3C=C2[N+](=O)[O-])cc1OCC (stereo not shown) [Compound 2, 6-Bromo-2-(3,4-diethoxyphenyl)-3-nitro-2H -chromene]	0%
COc1ccc(C2Oc3c(cc(Br)cc3OC)C=C2[N+](=O)[O-])cc1OC (stereo not shown) [Compound 3, 6-Bromo-2-(3,4-dimethoxyphenyl)-8-methoxy-3-nitro-2H -chromene]	0%
COc1ccc(C2Oc3ccc(Br)cc3C=C2[N+](=O)[O-])cc1OC (stereo not shown) [Compound 4, 6-Bromo-2-(3,4-dimethoxyphenyl)-3-nitro-2H -chromene]	12.1%
CCOc1ccc(C2Oc3c(Cl)cc(Cl)cc3C=C2[N+](=O)[O-])cc1OCC (stereo not shown) [Compound 9, 6,8-Dichloro-2-(3,4-diethoxyphenyl)-3-nitro-2H -chromene]	10.1 ± 0.1%
O=[N+]([O-])C1=Cc2cc(Br)ccc2OC1c1ccccc1Cl (stereo not shown) [Compound 11, 6-Bromo-2-(2-chlorophenyl)-3-nitro-2H -chromene]	15 ± 0.1%

Tested on: T. brucei brucei (427 strain) bloodstream form
Experiment: In vitro T. brucei biological assay (Alamar blue)
Assay type: cell-based, Trypanosoma brucei brucei
Conditions: T. brucei brucei 427 strain bloodstream form
Method: The in vitro cell culture preparation of T. brucei brucei (427 strain) trypomastigote bloodstream form followed by treatment with inhibitors has recently been described by Ajayi and colleagues. The 3-nitro-2-phenyl-2H-chromene compounds (inhibitors) that were prepared as 10.0 mM stock solutions in 100% DMSO were thawed from −80 °C to room temperature. HMI-9 medium [Iscove’s modification of DMEM supplemented with 10% FBS, 10% serum plus (SAFC), 0.05 mM bathocuproinesulfonate, 1.5 mM L-cysteine, 1.0 mM hypoxanthine, 0.2 mM β-mercaptoethanol, 0.16 mM thymidine, and 1.0 mM pyruvate] was prepared. In a sterile, round-bottom, 96-well microplate, 100 μL of HMI-9 medium was added to each well. A volume of 2.0 μL of a given compound plus a volume of 98.0 μL of fresh media were both added to a well in the first row of the 96-well microplate; this was performed for each compound to be tested. Solutions were mixed with a micropipette followed by transfer of 100 μL to the next row and repeated. The compound solutions ranged from 0.0781–10.0 μM and this was accomplished by serial dilution using a 2-fold dilution. T. brucei parasites were centrifuged for 10 min at 900× g (without centrifuge breaks). The media was carefully discarded by aspiration and the parasites were resuspended in warm media. Parasites were counted in a Newbauer chamber. Afterwards, the parasites were diluted to 50,000 cells/mL (5000 cells/well) and 100 μL was added to each well of the 96-well microplate using a multichannel pipette. After 48 h, 20.0 μL of Alamar blue was added to each well and the plate was placed into an incubator for 4 h at 37 °C. Fluorescence readings were measured using a Victor Nivo multimode microplate reader (PerkinElmer, Inc.; Shelton, CT, USA) at λex = 530 nm and λem = 590 nm. All measurements were performed in triplicate and IC50 determinations for percent growth inhibition were carried out using GraphPad Prism 10.0. The detergent SDS was used as a positive control and its final solution concentration was 0.5%. Three control experiments were performed, as follows: (a) parasites alone, (b) parasites and 0.5% SDS, and (c) the medium alone.

Structure (SMILES)	anti-T. brucei activity (in words)
CCOc1ccc(C2Oc3ccc(Br)cc3C=C2[N+](=O)[O-])cc1OC (stereo not shown) [Compound 1, 6-Bromo-2-(4-ethoxy-3-methoxyphenyl)-3-nitro-2H -chromene]	nanomolar potency
COc1ccc(C2Oc3c(cc(Br)cc3OC)C=C2[N+](=O)[O-])cc1OC (stereo not shown) [Compound 3, 6-Bromo-2-(3,4-dimethoxyphenyl)-8-methoxy-3-nitro-2H -chromene]	nanomolar potency
COc1ccc(C2Oc3ccc(Br)cc3C=C2[N+](=O)[O-])cc1OC (stereo not shown) [Compound 4, 6-Bromo-2-(3,4-dimethoxyphenyl)-3-nitro-2H -chromene]	nanomolar potency
CCOc1ccc(C2Oc3c(Cl)cc(Cl)cc3C=C2[N+](=O)[O-])cc1OCC (stereo not shown) [Compound 9, 6,8-Dichloro-2-(3,4-diethoxyphenyl)-3-nitro-2H -chromene]	nanomolar potency
O=[N+]([O-])C1=Cc2cc(Br)ccc2OC1c1ccccc1Cl (stereo not shown) [Compound 11, 6-Bromo-2-(2-chlorophenyl)-3-nitro-2H -chromene]	nanomolar potency

Same assay, conditions: T. brucei brucei 427 strain bloodstream form growth inhibition; 48 h; N = 3

Structure (SMILES)	IC50
COc1ccc(C2Oc3c(cc(Br)cc3OC)C=C2[N+](=O)[O-])cc1OC (stereo not shown) [Compound 3, 6-Bromo-2-(3,4-dimethoxyphenyl)-8-methoxy-3-nitro-2H -chromene]	520 ± 50 nM
COc1ccc(C2Oc3ccc(Br)cc3C=C2[N+](=O)[O-])cc1OC (stereo not shown) [Compound 4, 6-Bromo-2-(3,4-dimethoxyphenyl)-3-nitro-2H -chromene]	440 ± 30 nM

Same assay, conditions: Trypanosoma brucei, 48 h, T. brucei brucei 427 strain bloodstream form growth inhibition; N = 3

Structure (SMILES)	IC50
CCOc1ccc(C2Oc3ccc(Br)cc3C=C2[N+](=O)[O-])cc1OC (stereo not shown) [Compound 1, 6-Bromo-2-(4-ethoxy-3-methoxyphenyl)-3-nitro-2H -chromene]	610 ± 30 nM
CCOc1ccc(C2Oc3ccc(Br)cc3C=C2[N+](=O)[O-])cc1OCC (stereo not shown) [Compound 2, 6-Bromo-2-(3,4-diethoxyphenyl)-3-nitro-2H -chromene]	1190 ± 40 nM
COc1ccc(C2Oc3c(cc(Br)cc3OC)C=C2[N+](=O)[O-])cc1OC (stereo not shown) [Compound 3, 6-Bromo-2-(3,4-dimethoxyphenyl)-8-methoxy-3-nitro-2H -chromene]	< 550 nM
COc1ccc(C2Oc3ccc(Br)cc3C=C2[N+](=O)[O-])cc1OC (stereo not shown) [Compound 4, 6-Bromo-2-(3,4-dimethoxyphenyl)-3-nitro-2H -chromene]	< 550 nM
CCOc1ccc(C2Oc3c(Cl)cc(Cl)cc3C=C2[N+](=O)[O-])cc1OCC (stereo not shown) [Compound 9, 6,8-Dichloro-2-(3,4-diethoxyphenyl)-3-nitro-2H -chromene]	660 ± 50 nM
O=[N+]([O-])C1=Cc2cc(Br)ccc2OC1c1ccccc1Cl (stereo not shown) [Compound 11, 6-Bromo-2-(2-chlorophenyl)-3-nitro-2H -chromene]	860 ± 200 nM

Same assay, conditions: Trypanosoma brucei, bound stated in the text for the top seven anti-T. brucei compounds

Structure (SMILES)	IC50
CCOc1ccc(C2Oc3ccc(Br)cc3C=C2[N+](=O)[O-])cc1OC (stereo not shown) [Compound 1, 6-Bromo-2-(4-ethoxy-3-methoxyphenyl)-3-nitro-2H -chromene]	< 750 nM
COc1ccc(C2Oc3c(cc(Br)cc3OC)C=C2[N+](=O)[O-])cc1OC (stereo not shown) [Compound 3, 6-Bromo-2-(3,4-dimethoxyphenyl)-8-methoxy-3-nitro-2H -chromene]	< 750 nM
COc1ccc(C2Oc3ccc(Br)cc3C=C2[N+](=O)[O-])cc1OC (stereo not shown) [Compound 4, 6-Bromo-2-(3,4-dimethoxyphenyl)-3-nitro-2H -chromene]	< 750 nM
CCOc1ccc(C2Oc3c(Cl)cc(Cl)cc3C=C2[N+](=O)[O-])cc1OCC (stereo not shown) [Compound 9, 6,8-Dichloro-2-(3,4-diethoxyphenyl)-3-nitro-2H -chromene]	< 750 nM
